Measured values taken from PubChem BioAssay (NCI).
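Following 48 hours of exposure in 96-well plates, responses at five concentrations were used to interpolate endpoints linearly. TGI: total growth inhibition.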

Key:
Experiment in all cases: growth of human tumour cells (NCI), 48 h
A549 NSCLC = system: A549 NSCLC
NCI-H522 lung = system: NCI-H522 lung
HOP-92 NSCLC = system: HOP-92 NSCLC
IGROV1 ovarian = system: IGROV1 ovarian
MCF7 breast = system: MCF7 breast
CCRF-CEM leukemia = system: CCRF-CEM leukemia
SW-620 colon = system: SW-620 colon
KM12 colon = system: KM12 colon
SN12C renal = system: SN12C renal
HCC-2998 colon = system: HCC-2998 colon
MDA-MB-435 = system: MDA-MB-435
K-562 leukemia = system: K-562 leukemia
SF-268 CNS = system: SF-268 CNS
BT-549 breast = system: BT-549 breast
MDA-MB-231 breast = system: MDA-MB-231 breast
EKVX NSCLC = system: EKVX NSCLC
HCT-116 colon = system: HCT-116 colon
A498 renal = system: A498 renal
NCI-H23 lung = system: NCI-H23 lung
RXF 393 renal = system: RXF 393 renal
MDA-N = system: MDA-N
CAKI-1 renal = system: CAKI-1 renal
RPMI-8226 leukemia = system: RPMI-8226 leukemia
786-0 renal = system: 786-0 renal
NCI-H226 lung = system: NCI-H226 lung
SK-OV-3 ovarian = system: SK-OV-3 ovarian
OVCAR-8 ovarian = system: OVCAR-8 ovarian
PC-3 prostate = system: PC-3 prostate
T-47D breast = system: T-47D breast
UACC-62 melanoma = system: UACC-62 melanoma
HT29 colon = system: HT29 colon
MOLT-4 leukemia = system: MOLT-4 leukemia
UO-31 renal = system: UO-31 renal
OVCAR-4 ovarian = system: OVCAR-4 ovarian
SF-295 CNS = system: SF-295 CNS
LOX IMVI melanoma = system: LOX IMVI melanoma
DU-145 prostate = system: DU-145 prostate
OVCAR-5 ovarian = system: OVCAR-5 ovarian
HS 578T breast = system: HS 578T breast
ACHN renal = system: ACHN renal
NCI/ADR-RES ovarian = system: NCI/ADR-RES ovarian
SR leukemia = system: SR leukemia
SK-MEL-2 melanoma = system: SK-MEL-2 melanoma
HCT-15 colon = system: HCT-15 colon
SF-539 CNS = system: SF-539 CNS
SNB-75 CNS = system: SNB-75 CNS
MALME-3M melanoma = system: MALME-3M melanoma
SNB-19 CNS = system: SNB-19 CNS
UACC-257 melanoma = system: UACC-257 melanoma
U251 CNS = system: U251 CNS
COLO 205 colon = system: COLO 205 colon
NCI-H460 lung = system: NCI-H460 lung
SK-MEL-5 melanoma = system: SK-MEL-5 melanoma
TK-10 renal = system: TK-10 renal
HOP-62 NSCLC = system: HOP-62 NSCLC
M14 melanoma = system: M14 melanoma
OVCAR-3 ovarian = system: OVCAR-3 ovarian
SK-MEL-28 melanoma = system: SK-MEL-28 melanoma

CC(C)OC(=O)[C@@H]1OC(C)(C)O[C@H]1C(=O)OC(C)C
TGI (A549 NSCLC): > 100 µM | TGI (NCI-H522 lung): > 100 µM | TGI (HOP-92 NSCLC): > 100 µM | TGI (IGROV1 ovarian): > 100 µM | TGI (MCF7 breast): > 100 µM | TGI (CCRF-CEM leukemia): > 100 µM | TGI (SW-620 colon): > 100 µM | TGI (KM12 colon): > 100 µM | TGI (SN12C renal): > 100 µM | TGI (HCC-2998 colon): > 100 µM | TGI (MDA-MB-435): > 100 µM | TGI (K-562 leukemia): > 100 µM | TGI (SF-268 CNS): > 100 µM | TGI (BT-549 breast): > 100 µM | TGI (MDA-MB-231 breast): > 100 µM | TGI (EKVX NSCLC): > 100 µM | TGI (HCT-116 colon): > 100 µM | TGI (A498 renal): > 100 µM | TGI (NCI-H23 lung): > 100 µM | TGI (RXF 393 renal): > 100 µM | TGI (MDA-N): > 100 µM | TGI (CAKI-1 renal): > 100 µM | TGI (RPMI-8226 leukemia): > 100 µM | TGI (786-0 renal): > 100 µM | TGI (NCI-H226 lung): > 100 µM | TGI (SK-OV-3 ovarian): > 100 µM | TGI (OVCAR-8 ovarian): > 100 µM | TGI (PC-3 prostate): > 100 µM | TGI (T-47D breast): > 100 µM | TGI (UACC-62 melanoma): > 100 µM | TGI (HT29 colon): > 100 µM | TGI (MOLT-4 leukemia): > 100 µM | TGI (UO-31 renal): > 100 µM | TGI (OVCAR-4 ovarian): > 100 µM | TGI (SF-295 CNS): > 100 µM | TGI (LOX IMVI melanoma): > 100 µM | TGI (DU-145 prostate): > 100 µM | TGI (OVCAR-5 ovarian): > 100 µM | TGI (HS 578T breast): > 100 µM | TGI (ACHN renal): > 100 µM | TGI (NCI/ADR-RES ovarian): > 100 µM | TGI (SR leukemia): > 100 µM | TGI (SK-MEL-2 melanoma): > 100 µM | TGI (HCT-15 colon): > 100 µM | TGI (SF-539 CNS): > 100 µM | TGI (SNB-75 CNS): > 100 µM | TGI (MALME-3M melanoma): > 100 µM | TGI (SNB-19 CNS): > 100 µM | TGI (UACC-257 melanoma): > 100 µM | TGI (U251 CNS): > 100 µM | TGI (COLO 205 colon): > 100 µM | TGI (NCI-H460 lung): > 100 µM | TGI (SK-MEL-5 melanoma): > 100 µM | TGI (TK-10 renal): > 100 µM | TGI (HOP-62 NSCLC): > 100 µM

O=C1C(c2c(O)[nH]c3ccc([N+](=O)[O-])cc23)=Nc2ccccc21
TGI (A549 NSCLC): > 100 µM | TGI (NCI-H522 lung): > 100 µM | TGI (HOP-92 NSCLC): > 100 µM | TGI (IGROV1 ovarian): > 100 µM | TGI (MCF7 breast): > 100 µM | TGI (CCRF-CEM leukemia): > 100 µM | TGI (M14 melanoma): > 100 µM | TGI (SW-620 colon): > 100 µM | TGI (KM12 colon): > 100 µM | TGI (SN12C renal): > 100 µM | TGI (OVCAR-3 ovarian): > 100 µM | TGI (HCC-2998 colon): > 100 µM | TGI (MDA-MB-435): > 100 µM | TGI (K-562 leukemia): > 100 µM | TGI (SF-268 CNS): > 100 µM | TGI (BT-549 breast): > 100 µM | TGI (MDA-MB-231 breast): 91.2 µM | TGI (EKVX NSCLC): > 100 µM | TGI (HCT-116 colon): > 100 µM | TGI (A498 renal): > 100 µM | TGI (NCI-H23 lung): > 100 µM | TGI (RXF 393 renal): 42.2 µM | TGI (MDA-N): > 100 µM | TGI (CAKI-1 renal): > 100 µM | TGI (RPMI-8226 leukemia): > 100 µM | TGI (786-0 renal): > 100 µM | TGI (NCI-H226 lung): > 100 µM | TGI (SK-OV-3 ovarian): > 100 µM | TGI (OVCAR-8 ovarian): > 100 µM | TGI (PC-3 prostate): > 100 µM | TGI (T-47D breast): > 100 µM | TGI (UACC-62 melanoma): > 100 µM | TGI (HT29 colon): > 100 µM | TGI (MOLT-4 leukemia): > 100 µM | TGI (UO-31 renal): > 100 µM | TGI (OVCAR-4 ovarian): > 100 µM | TGI (SF-295 CNS): > 100 µM | TGI (SK-MEL-28 melanoma): > 100 µM | TGI (LOX IMVI melanoma): > 100 µM | TGI (DU-145 prostate): > 100 µM | TGI (OVCAR-5 ovarian): > 100 µM | TGI (HS 578T breast): > 100 µM | TGI (ACHN renal): > 100 µM | TGI (NCI/ADR-RES ovarian): > 100 µM | TGI (SR leukemia): > 100 µM | TGI (SK-MEL-2 melanoma): > 100 µM | TGI (HCT-15 colon): > 100 µM | TGI (SNB-75 CNS): 34.2 µM | TGI (MALME-3M melanoma): > 100 µM | TGI (SNB-19 CNS): > 100 µM | TGI (UACC-257 melanoma): > 100 µM | TGI (U251 CNS): 49.8 µM | TGI (COLO 205 colon): > 100 µM | TGI (NCI-H460 lung): > 100 µM | TGI (SK-MEL-5 melanoma): > 100 µM | TGI (TK-10 renal): 70.9 µM | TGI (HOP-62 NSCLC): > 100 µM
